Source: patent US20100298141A1, “SUBSTITUTED PYRIDINE N-OXIDE HERBICIDES” (E. I. DU PONT DE NEMOURS AND COMPANY, priority 2007, published 2010)

Experiments:
[1] = system: umbrella sedge; test: Test C flooded paddy test; assay type: in vivo, Cyperus difformis; conditions: Flood
Outline: (§1)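 Flooded 3 cm over soil; compound into paddy water; depth kept constant. Greenhouse 13–15 d.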

[2] = system: duck salad; test: Test C flooded paddy test; assay type: in vivo, Heteranthera limosa; conditions: Flood
Outline: as §1

[3] = system: velvetleaf; test: Test A pre-/postemergence greenhouse test; assay type: in vivo, Abutilon theophrasti; conditions: for Velvetleaf plant response rating: 0 to 100 scale
Outline: (§2)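 Visual injury ratings against untreated controls, taken roughly ten days after treatment in greenhouse. Plants were sprayed postemergence at one- to two-leaf stage (2–10 cm tall); at the same time, seeded loam/sand soil received a directed preemergence spray. Formulation: non-phytotoxic solvent mixture with surfactant.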

[4] = system: wheat; test: Test A pre-/postemergence greenhouse test; assay type: in vivo, Triticum aestivum; conditions: for Wheat plant response rating: 0 to 100 scale
Outline: as §2

[5] = system: corn; test: Test A pre-/postemergence greenhouse test; assay type: in vivo, Zea mays; conditions: for Plant response rating, Corn: 0 to 100 scale where 0 is no effect and 100 is complete control; for Corn plant response rating: 0 to 100 scale
Outline: as §2

[6] = system: redroot pigweed; test: Test A pre-/postemergence greenhouse test; assay type: in vivo, Amaranthus retroflexus; conditions: for Plant response rating, Pigweed: 0 to 100 scale where 0 is no effect and 100 is complete control; for Pigweed plant response rating: 0 to 100 scale
Outline: as §2

[7] = system: morningglory; test: Test A pre-/postemergence greenhouse test; assay type: in vivo, Ipomoea spp.; conditions: for Plant response rating, Morningglory: 0 to 100 scale where 0 is no effect and 100 is complete control; for Morningglory plant response rating: 0 to 100 scale
Outline: as §2

[8] = system: giant foxtail; test: Test A pre-/postemergence greenhouse test; assay type: in vivo, Setaria faberi; conditions: for Plant response rating, Foxtail, Giant: 0 to 100 scale where 0 is no effect and 100 is complete control; for Foxtail, Giant plant response rating: 0 to 100 scale
Outline: as §2

[9] = system: rice; test: Test C flooded paddy test; assay type: in vivo, Oryza sativa; conditions: Flood
Outline: as §1

[10] = system: barnyardgrass; test: Test A pre-/postemergence greenhouse test; assay type: in vivo, Echinochloa crus-galli; conditions: for Plant response rating, Barnyardgrass: 0 to 100 scale where 0 is no effect and 100 is complete control; for Barnyardgrass plant response rating: 0 to 100 scale
Outline: as §2

[11] = system: barnyardgrass; test: Test C flooded paddy test; assay type: in vivo, Echinochloa crus-galli; conditions: Flood
Outline: as §1

[12] = system: crabgrass; test: Test A pre-/postemergence greenhouse test; assay type: in vivo, Digitaria sanguinalis; conditions: for Plant response rating, Crabgrass, Large: 0 to 100 scale where 0 is no effect and 100 is complete control; for Crabgrass, Large plant response rating: 0 to 100 scale
Outline: as §2

[13] = 62 g ai/ha, scale 0 to 100 (0 no effect, 100 complete control)
[14] = 250 g ai/ha, scale 0 to 100, 0 no effect, 100 complete control, 13 to 15 days
[15] = Postemergence, 125 g ai/ha, 0 to 100 scale where 0 is no effect and 100 is complete control
[16] = Postemergence, 500 g ai/ha, 0 is no effect, 100 is complete control
[17] = Preemergence, 125 g ai/ha, 0 no effect, 100 complete control
[18] = Preemergence, 500 g ai/ha, 0 no effect, 100 complete control

Compound: Cc1cc[n+]([O-])c([S+]([O-])Cc2c(C(F)(F)F)nn(C)c2OC(C)C(F)(F)F)c1 (stereo not shown) [Compound 88]
- Plant response rating, Sedge, Umbrella [1, 13]: 0
- Plant response rating, Sedge, Umbrella [1, 14]: 85
- Plant response rating, Ducksalad [2, 13]: 0
- Plant response rating, Ducksalad [2, 14]: 70
- Plant response rating, Velvetleaf [3, 15]: 0
- Velvetleaf plant response rating [3, 16]: 50
- Velvetleaf plant response rating [3, 17]: 0
- Velvetleaf plant response rating [3, 18]: 90
- Plant response rating, Wheat [4, 15]: 30
- Wheat plant response rating [4, 16]: 70
- Wheat plant response rating [4, 17]: 20
- Wheat plant response rating [4, 18]: 80
- Plant response rating, Corn ([5]; Postemergence, 125 g ai/ha): 20
- Corn plant response rating [5, 16]: 60
- Corn plant response rating [5, 17]: 0
- Plant response rating, Corn ([5]; Preemergence, 500 g ai/ha): 50
- Plant response rating, Pigweed ([6]; Postemergence, 125 g ai/ha): 30
- Pigweed plant response rating [6, 16]: 80
- Pigweed plant response rating [6, 17]: 90
- Plant response rating, Pigweed ([6]; Preemergence, 500 g ai/ha): 100
- Plant response rating, Morningglory ([7]; Postemergence, 125 g ai/ha): 60
- Morningglory plant response rating [7, 16]: 90
- Morningglory plant response rating [7, 17]: 70
- Plant response rating, Morningglory ([7]; Preemergence, 500 g ai/ha): 90
- Plant response rating, Foxtail, Giant ([8]; Postemergence, 125 g ai/ha): 50
- Foxtail, Giant plant response rating [8, 16]: 90
- Foxtail, Giant plant response rating [8, 17]: 90
- Plant response rating, Foxtail, Giant ([8]; Preemergence, 500 g ai/ha): 100
- Plant response rating, Rice [9, 13]: 0
- Plant response rating, Rice [9, 14]: 45
- Plant response rating, Barnyardgrass ([10]; Postemergence, 125 g ai/ha): 30
- Barnyardgrass plant response rating [10, 16]: 80
- Barnyardgrass plant response rating [10, 17]: 60
- Plant response rating, Barnyardgrass ([10]; Preemergence, 500 g ai/ha): 100
- Plant response rating, Barnyardgrass [11, 13]: 0
- Plant response rating, Barnyardgrass [11, 14]: 30
- Plant response rating, Crabgrass, Large ([12]; Postemergence, 125 g ai/ha): 50
- Crabgrass, Large plant response rating [12, 16]: 80
- Crabgrass, Large plant response rating [12, 17]: 20
- Plant response rating, Crabgrass, Large ([12]; Preemergence, 500 g ai/ha): 90
